{"source": "patent US20140004075A1", "about": "“PHEROMONE COMPOSITION” (The New Zealand Institute for Plant and Food Research …, priority 2010, published 2014)", "test_system": "Epiphyas postvittana", "experiment": "Large Vineyard Trial 2 (disruption of catch to four component lures)", "assay_type": "in vivo", "conditions": "added at 4:1 ratio E11-14:Ac to Z11-14:Ac (Blends 4, 5)", "experimental": "All compounds used as authentic standards in the chromatographic analysis or in the field trapping experiments were >97% pure by GC analysis and stored at −80° C. until used. Samples of E11-14:Ac, E9E11-14:Ac, E11-14:OH and E11-16:Ac were purchased from Plant Research International, Wageningen, The Netherlands. All blends of synthetic compounds were applied to the large “well” of red rubber septa (West Pharmaceutical Services, Kearney, N.E., USA) in 200 μl of n-hexane GR (Merck Ltd, New Zealand). The solvent was allowed to evaporate in a fume hood and the septa were stored in heat-sealed foil bags at −20° C. until ready for use. For traps used in assessing disruption, lures contained the four component lure at 1 mg loading with the blends shown in Table 1. […]\nTraps were maintained weekly as a short central row transect in each case, with 3 traps containing the four component lure. […] For both trials, the number of moths in the traps was recorded each week. […]\nFor both Large Vineyard Trials 1 and 2, counts for each date were analysed. In addition, the total pre-treatment and post-treatment counts were analysed. […] Random effects assessed were blocks (replicates), plots within blocks, and spatial position (rows and column as in the Trial plans). In addition to the treatments, for the post-treatment counts, a co-variate for the trap counts in the last pre-treatment week was assessed as a fixed effect. […]"}
{"smiles": "CC/C=C\\CCCCCCCCCCOC(C)=O", "note": "[Z11-14:Ac, (Z)-11-tetradecenyl acetate]", "values": [{"measurement": "effect of the inhibitor on disruption", "value": "antagonistic to disruption"}]}
